Assay results as given in article PMC7018657, “Molecular Determinants of Substrate Selectivity of a Pneumococcal Rgg-Regulated Peptidase-Containing ABC Transporter” (mBio, 2020).
Where no end group is shown, it is not given here.

Assays:
[1] = target: T1, D39 PrtgS1-luc (rtg locus) (Streptococcus pneumoniae, UniProt A0ACD7PPC8); experiment: RtgS dose-response assay, PrtgS1-luc reporter, D39 ΔrtgS1 ΔrtgS2; assay type: cell-based; details: CDM+; for Maximal response: mean ± SE from Hill fit, 3 independent experiments, max PrtgS1 activity within 60 min / 120 min (methods)
T1 sequence (A0ACD7PPC8 1-287): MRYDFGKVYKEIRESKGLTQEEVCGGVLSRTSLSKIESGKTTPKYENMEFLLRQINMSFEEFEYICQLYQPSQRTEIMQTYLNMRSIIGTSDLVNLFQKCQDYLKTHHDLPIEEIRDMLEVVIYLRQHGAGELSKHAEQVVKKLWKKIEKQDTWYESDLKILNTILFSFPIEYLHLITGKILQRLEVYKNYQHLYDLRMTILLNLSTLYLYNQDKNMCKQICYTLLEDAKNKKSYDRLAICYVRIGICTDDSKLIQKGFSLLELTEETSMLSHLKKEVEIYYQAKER
Protocol: (§1) FIG 2 The Rgg/SHP-like RtgR/RtgS system regulates rtg. (A) rtgR and rtgS1 are required for rtg activation in Sp9-BS68. Sp9-BS68 PrtgS1-luc reporters were grown in CDM+ or THY and monitored for rtg activation (dark, left y axis) and cell density (light, right y axis). Plots show medians (lines) and 25% to 75% quantiles (shading) from 12 wells pooled from 3 independent experiments. (B) Translated rtgS gene products from Sp9-BS68 and D39. The type-defining residues are highlighted in red. (C) rtgS1 but not rtgS2 is required for rtg activation in D39. D39 PrtgS1-luc reporters were grown in CDM+ and monitored for rtg activation (dark, left y axis) and cell density (light, right y axis). Plots show medians (lines) and 25% to 75% quantiles (shading) from 30 wells pooled from 3 independent experiments. C-terminal fragments of RtgSA induce rtg in an RtgR-dependent manner. Sp9-BS68 PrtgS1-luc reporters were grown in CDM+ and THY (D) or CDM+ only (E) to an OD620 of 0.02 and treated with synthetic RtgSA fragments. Response was defined as the maximum observed PrtgS1 activity within 60 min of treatment. Data in panel D were fitted to the four-parameter Hill model (curves). Plotted data points represent means ± SEs from 3 independent experiments. […] A D39 ΔrtgS1 ΔrtgS2 PrtgS1-luc reporter was grown in CDM+ to an OD620 of 0.02 and treated with synthetic RtgS fragments. Response was defined as the maximum observed PrtgS1 activity within 60 min of treatment. Data were fitted to the four-parameter Hill model (curves). Plotted data points represent means ± SEs from 3 independent experiments. […] A D39 ΔrtgS1 ΔrtgS2 PrtgS1-luc reporter was grown in CDM+ to an OD620 of 0.02 and treated simultaneously with 2 nM RtgSA-C10 and various concentrations of RtgSB-C10. Response was defined as the maximum observed PrtgS1 activity within 120 min of treatment. Plotted data points represent means ± SEs from 3 independent experiments. **, P < 0.01; ***, P < 0.001 versus 0 nM RtgSB-C10 by ANOVA with Dunnett’s correction for multiple comparisons.
(§2) All strains were derived from Sp9-BS68 ([36]), D39, or the R6 strain P654 (referred to as PSD100 in reference) (see Table S1 and methods in Text S1 in the supplemental material for details). […] Pneumococcus was grown in either filter-sterilized THY (Todd Hewitt broth plus 0.5% yeast extract) or CDM+ (see methods in Text S1) ([38]) at 37°C. All media contained 5 μg/ml catalase. All CDM+ was supplemented with 0.5% (vol/vol) THY. Except where noted otherwise, pneumococcal cultures used for experiments were inoculated to an OD620 of 0.0015 from starter cultures grown in THY (pH 7.4) to an OD620 of 0.275 and frozen at −80°C in 13% glycerol. Starter cultures were pelleted at 6,000 × g for 5 min at room temperature and resuspended in the appropriate growth medium for the experiment before being used for inoculation. Antibiotics were used at the following concentrations: chloramphenicol, 2 μg/ml; gentamicin, 200 μg/ml; kanamycin, 500 μg/ml; spectinomycin, 200 μg/ml; streptomycin, 100 μg/ml.
(§3) Cells expressing PrtgS1-luc reporters were grown in THY or CDM+ containing 330 μM firefly luciferin. […] The plate was then incubated in a Synergy HTX plate reader set to read absorbance at 620 nm and luminescence every 5 min. For D39 strains only, the plate was shaken before readings were taken. PrtgS1 activity was calculated, and the response was defined as the maximum observed PrtgS1 activity within 60 min (Sp9-BS68) or 120 min (D39) of treatment. […]

[2] = target: T1, D39 PrtgS1-luc (rtg locus); experiment: Competitive dose-response assay of RtgSB-C10 against RtgSA-C10, D39 ΔrtgS1 ΔrtgS2 PrtgS1-luc; assay type: cell-based; details: CDM+
Protocol: FIG 2 The Rgg/SHP-like RtgR/RtgS system regulates rtg. (A) rtgR and rtgS1 are required for rtg activation in Sp9-BS68. Sp9-BS68 PrtgS1-luc reporters were grown in CDM+ or THY and monitored for rtg activation (dark, left y axis) and cell density (light, right y axis). Plots show medians (lines) and 25% to 75% quantiles (shading) from 12 wells pooled from 3 independent experiments. (B) Translated rtgS gene products from Sp9-BS68 and D39. The type-defining residues are highlighted in red. (C) rtgS1 but not rtgS2 is required for rtg activation in D39. D39 PrtgS1-luc reporters were grown in CDM+ and monitored for rtg activation (dark, left y axis) and cell density (light, right y axis). Plots show medians (lines) and 25% to 75% quantiles (shading) from 30 wells pooled from 3 independent experiments. C-terminal fragments of RtgSA induce rtg in an RtgR-dependent manner. […]
as §3

[3] = tested on: Sp9-BS68 rtgS1 promoter (PrtgS1-luc; RtgR-dependent); experiment: RtgS dose-response assay, PrtgS1-luc reporter, Sp9-BS68 ΔrtgS1; assay type: cell-based, Streptococcus pneumoniae Sp9-BS68; details: for induction of rtgS1 promoter: Sp9-BS68 PrtgS1-luc, CDM+ and THY; for Maximal response / EC50: Sp9-BS68 ΔrtgS1, mean ± SE from Hill fit, 3 independent experiments, max PrtgS1 activity within 60 min; for EC50: synthetic peptide added at OD620 0.02, luminescence, 37°C
Protocol: as §1, §2
Cells expressing PrtgS1-luc reporters were grown in THY or CDM+ containing 330 μM firefly luciferin. At an OD620 of 0.02, cultures were aliquoted into a white, clear-bottom 96-well plate (655098; Greiner Bio-One), 100 μl per well. Each well of the plate was prefilled with 100 μl sterile medium containing 0.5% (vol/vol) dimethyl sulfoxide (DMSO), 330 μM firefly luciferin, and appropriate concentrations of synthetic RtgS peptide (Genscript). The plate was then incubated in a Synergy HTX plate reader set to read absorbance at 620 nm and luminescence every 5 min. For D39 strains only, the plate was shaken before readings were taken. PrtgS1 activity was calculated, and the response was defined as the maximum observed PrtgS1 activity within 60 min (Sp9-BS68) or 120 min (D39) of treatment. When applicable, curves were fit to a Hill model using the nls() function in R 3.5.1.

[4] = tested on: Sp9-BS68 PrtgS1-luc in ΔpptAB and ΔamiCD mutants; experiment: Response of ΔpptAB and ΔamiCD PrtgS1-luc reporters to exogenous RtgS; assay type: cell-based, Streptococcus pneumoniae Sp9-BS68; details: CDM+, RtgSA-C10 at OD620 0.02, max within 60 min, 3 independent experiments
Protocol: Supplementary file : FIG S1 Ami and PptAB are required for RtgR/S signaling. (A) Both Ami and PptAB are required for natural rtg autoinduction. Sp9-BS68 PrtgS1-luc reporters were grown in CDM+ and monitored for rtg activation (dark, left y axis) and cell density (light, right y axis). Plots show medians (lines) and 25% to 75% quantiles (shading) from 30 wells per strain pooled from 3 independent experiments. […] Sp9-BS68 PrtgS1-luc reporters were grown in CDM+ to an OD620 of 0.02 and treated with RtgSA-C10. Response was defined as the maximum observed PrtgS1 activity within 60 min of treatment. Plotted data points represent means ± SEs from 3 independent experiments. Download FIG S1, PDF file, 0.6 MB.
as §3, with “luciferin. At an OD620 of 0.02, cultures were aliquoted into a white, clear-bottom 96-well plate (655098; Greiner Bio-One), 100 μl per well.” for “luciferin.”

| Sequence | rtg induction / type of agonism [1] | Maximal response [1] | EC50 value larger than that of RtgSA-C10 (ratio) ([1]; versus RtgSA-C10) | antagonism of RtgSA-C10 ([2]; high concentrations with 2 nM RtgSA-C10, 3 independent experiments) | concentration antagonizing RtgSA-C10 ([2]; simultaneous with 2 nM RtgSA-C10, max PrtgS1 activity within 120 min, 3 independent experiments) | induction of rtgS1 promoter [3] | Maximal response ([3]; CDM+) | EC50 ([3]; CDM+) | Maximal response ([3]; THY) | EC50 ([3]; THY) | rescue of rtg activation by exogenous RtgS [4] |
| --- | --- | --- | --- | --- | --- | --- | --- | --- | --- | --- | --- |
| AIIFPWGWSI [RtgSB-C10] | partial agonist | 21.2 ± 1.5 10^3 RLU·min^−1·OD620^−1 | 55 fold | antagonize RtgSA-C10 | ≥ 256 nM |  |  |  |  |  |  |
| AIIFPWGWPI [RtgSA-C10] | induces rtg similarly to Sp9-BS68 | 75.1 ± 8.1 10^3 RLU·min^−1·OD620^−1 |  |  |  | induced expression from the Sp9-BS68 rtgS1 promoter in both CDM+ and THY | 205.7 ± 9.1 10^3 RLU·min^−1·OD620^−1 | 1.63 ± 0.19 nM | 232.4 ± 14.3 10^3 RLU·min^−1·OD620^−1 | 47.4 ± 6.9 nM | rescues rtg activation defect in the ΔpptAB mutant but not the ΔamiCD mutant |
| IFPWGWPI [RtgSA-C8] |  |  |  |  |  | induced expression from the Sp9-BS68 rtgS1 promoter in both CDM+ and THY | 212.2 ± 9.4 10^3 RLU·min^−1·OD620^−1 | 2.53 ± 0.25 nM | 229.7 ± 8.6 10^3 RLU·min^−1·OD620^−1 | 184 ± 15 nM |  |
| SLAIIFPWGWPI [RtgSA-C12] |  |  |  |  |  | induced expression from the Sp9-BS68 rtgS1 promoter in both CDM+ and THY | 213.9 ± 8.0 10^3 RLU·min^−1·OD620^−1 | 3.51 ± 0.28 nM | 210.1 ± 13.1 10^3 RLU·min^−1·OD620^−1 | 315 ± 42 nM |  |
